Assays:
[1] = 100 kPa, Liquid, Frequency=0.01 MHz, Alternating current cell with electrodes
[2] = xn = mol fraction of the nth substance listed; settings: 100 kPa, Liquid, Frequency=0.01 MHz, Alternating current cell with electrodes
[3] = mn = molality of the nth substance listed, in mol/kg; settings: 100 kPa, Liquid, Frequency=0.01 MHz, Alternating current cell with electrodes

CCCO [propan-1-ol]
[1]
Settings	electrical conductivity [S/m]
293.15 K	1.51e-06
298.15 K	1.8e-06
303.15 K	2.16e-06
308.15 K	2.38e-06

CCCO [propan-1-ol] + O
electrical conductivity [S/m], [2]
Settings	x2 = 0	x2 = 0.1	x2 = 0.2	x2 = 0.3	x2 = 0.4	x2 = 0.5	x2 = 0.6	x2 = 0.7	x2 = 0.8
293.15 K	1.51e-06	3.98e-06	8.35e-06	1.38e-05	1.71e-05	2.01e-05	2.54e-05	2.84e-05	3.15e-05
298.15 K	1.8e-06	4.32e-06	8.31e-06	1.46e-05	1.86e-05	2.13e-05	2.55e-05	2.93e-05	3.36e-05
303.15 K	2.16e-06	4.68e-06	1.03e-05	1.58e-05	1.92e-05	2.27e-05	2.68e-05	3.06e-05	3.5e-05
308.15 K	2.38e-06	4.92e-06	8.6e-06	1.65e-05	2.01e-05	2.55e-05	2.96e-05	3.26e-05	3.75e-05

[I-].[Na+] [sodium iodide] + CCCO
[3]
Settings	electrical conductivity [S/m]
293.15 K, m1 = 0.0007138	0.00107
298.15 K, m1 = 0.0009446	0.00154
303.15 K, m1 = 0.0007238	0.00135
308.15 K, m1 = 0.0006021	0.00126

From the NIST ThermoML archive (doi:10.1016/j.jct.2017.07.003)
